Measured values from US20230365555A1, “CRYSTALLINE POLYMORPH FORM A OF A JAK INHIBITORAND METHODS FOR ITS PREPARATION” (ACLARIS THERAPEUTICS, INC., priority 2020, published 2023).

Test: Dynamic vapor sorption (DVS) analysis
Format: physicochemical
Conditions: bulk material, a batch of Compound 1; FIG. 5

Q: With `CCOC(=O)c1cnc2[nH]ccc2c1N[C@@H]1CCCN(C(=O)CC#N)C1` [Compound 1, ethyl (R)-4-((1-(2-cyanoacetyl)piperidin-3-yl)amino)-1H-pyrrolo[2,3-b]pyridine-5-carboxylate] as the compound, how does the “moisture uptake (DVS isotherms)” value read?
A: low moisture uptake
